# How the values were obtained:
# [1] = biological target: T1, HCV NS5B RdRp genotype 1b (Hepatitis C virus genotype 1b, UniProt Q9WMX2); assay: Standard HCV NS5B RdRp enzyme assay; type: biochemical; conditions: Table 1b; HCV NS5B RdRp genotype 1b; read-out: IC50
# T1 construct: The protein was expressed with an 18 amino acid C-terminal truncation to enhance the solubility; made in house; host or cells: E. coli BL21(DE3), pET21a vector
# Outline: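 C-terminally truncated (18 aa) genotype 1b NS5B from E. coli, 28 nM, with 6 nM polyA template, 180 nM biotinylated oligo-dT12 primer and 3H-UTP (0.29 μM total UTP). Hepes pH 7.5 buffer with 2% DMSO; 60 min at 30° C. EDTA stop, SPA read-out; IC50 from seven concentrations by four-parameter fit.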
# HCV replicon cells = assay: HCV replicon FRET / luciferase assay (96-well plates); type: cell-based; conditions: Hepatitis C virus, Table 1b; HCV replicon; read-out: EC50
# Outline: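 Replicon cells (with or without Renilla luciferase reporter) incubated with titrated compounds at 37 °C; Alamar blue read for cytotoxicity first. NS3 protease activity read kinetically with 20 μM EDANS/DABCYL FRET peptide in lysis reagent plus 150 mM NaCl (ex 340/em 490), or by Dual-Glo luciferase. EC50 = 50% signal reduction after protease-inhibitor background subtraction.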
# T1 sequence (Q9WMX2 2420-2992): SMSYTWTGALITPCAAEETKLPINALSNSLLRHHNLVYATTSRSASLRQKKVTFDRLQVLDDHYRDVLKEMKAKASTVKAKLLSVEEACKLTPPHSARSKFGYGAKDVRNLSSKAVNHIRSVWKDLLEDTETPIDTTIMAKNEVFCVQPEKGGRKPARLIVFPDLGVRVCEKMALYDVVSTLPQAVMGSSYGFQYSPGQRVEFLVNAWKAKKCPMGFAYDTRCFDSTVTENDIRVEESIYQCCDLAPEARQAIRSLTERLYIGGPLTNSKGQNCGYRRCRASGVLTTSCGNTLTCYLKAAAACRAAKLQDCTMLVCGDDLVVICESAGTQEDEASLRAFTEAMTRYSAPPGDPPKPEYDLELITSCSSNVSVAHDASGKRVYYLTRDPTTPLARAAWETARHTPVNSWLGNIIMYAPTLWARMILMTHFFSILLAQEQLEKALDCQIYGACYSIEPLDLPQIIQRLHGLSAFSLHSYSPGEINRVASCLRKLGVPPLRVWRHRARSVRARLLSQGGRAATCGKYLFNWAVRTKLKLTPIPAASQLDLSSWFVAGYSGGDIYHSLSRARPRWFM
SMILES,IC50 [1] [nM],EC50 (HCV replicon cells) [nM]
CNC(=O)c1c(-c2ccc(F)cc2)oc2ccc(-c3ccc(-c4cccnc4OC)c(C(=O)NCC(C)C)c3)cc12,< 250,< 250
CNC(=O)c1c(-c2ccc(F)cc2)oc2ccc(-c3ccc(-c4ccccc4OC)c(C(=O)NCC(C)C)c3)cc12,< 250,< 250
CNC(=O)c1c(-c2ccc(F)cc2)oc2ccc(-c3ccc(-c4cccc(/C=C/C(=O)O)c4)c(C(=O)NCC(C)C)c3)cc12,< 250,250 to 1000
CNC(=O)c1c(-c2ccc(F)cc2)oc2ccc(-c3ccc(-c4ccc5cc[nH]c5c4)c(C(=O)NCC(C)C)c3)cc12,250 to 1000,< 250
CNC(=O)c1c(-c2ccc(F)cc2)oc2ccc(-c3ccc(-c4cc(F)cc(F)c4)c(C(=O)NCC(C)C)c3)cc12,250 to 1000,< 250
C#CCNC(=O)C1(NC(=O)c2ccc(C)c(-c3ccc4oc(-c5ccc(F)cc5)c(C(=O)NC)c4c3)c2)CC1,< 250,< 250
CNC(=O)c1c(-c2ccc(C)cc2)oc2ccc(-c3cc(C(=O)NC4(c5nc(COC)no5)CC4)ccc3C)cc12,< 250,< 250
CNC(=O)c1c(-c2ccc(F)cc2)oc2ccc(-c3cc(OCCN(C)C)cc(C(=O)NCC(C)C)c3)cc12,250 to 1000,250 to 1000
CNC(=O)c1c(-c2ccc(F)cc2)oc2ccc(-c3cc(OCCc4cccnc4)cc(C(=O)NCC(C)C)c3)cc12,> 10000,1000 to 10000
CNC(=O)c1c(-c2ccc(F)cc2)oc2ccc(-c3cc(C(=O)NC4(c5nnc(N)o5)CC4)ccc3C)cc12,< 250,< 250
CNC(=O)c1c(-c2ccc(F)cc2)oc2ccc(-c3cc(C(=O)NC4(c5noc(C)n5)CC4)ccc3C)cc12,< 20,< 250
CNC(=O)c1c(-c2ccc(F)cc2)oc2ccc(-c3ccc(-c4cccnc4C)c(C(=O)NCC(C)C)c3)cc12,< 250,< 250
CNC(=O)c1c(-c2ccc(F)cc2)oc2ccc(-c3ccc(-c4cncc(N)c4)c(C(=O)NCC(C)C)c3)cc12,< 250,250 to 1000
CNC(=O)c1c(-c2ccc(F)cc2)oc2ccc(-c3ccc(-c4ccnc(N)c4)c(C(=O)NCC(C)C)c3)cc12,< 20,< 250
CNC(=O)c1c(-c2ccc(F)cc2)oc2ccc(-c3cc(C(=O)NC4(c5ccccn5)CC4)c(O)cc3Cl)cc12,< 250,250 to 1000
CNC(=O)c1c(-c2ccc(F)cc2)oc2ccc(-c3cc(C(=O)NC4(c5cccnc5)CC4)ccc3C)cc12,< 20,< 250
CNC(=O)c1c(-c2ccc(F)cc2)oc2ccc(-c3cc(O)cc(C(=O)NCC(C)C)c3)cc12,< 250,250 to 1000
CNC(=O)c1c(-c2ccc(F)cc2)oc2ccc(-c3cc(OCCCCN)cc(C(=O)NCC(C)C)c3)cc12,< 250,1000 to 10000
CNC(=O)c1c(-c2ccc(F)cc2)oc2ccc(-c3cc(OCCC4CCCNC4)cc(C(=O)NCC(C)C)c3)cc12 (stereo not drawn),< 250,< 250
CNC(=O)c1c(-c2ccc(F)cc2)oc2ccc(-c3cc(OCCn4ccnc4)cc(C(=O)NCC(C)C)c3)cc12,1000 to 10000,1000 to 10000
CNC(=O)c1c(-c2ccc(F)cc2)oc2ccc(-c3cc(OCCc4ccncc4)cc(C(=O)NCC(C)C)c3)cc12,< 250,> 500
C#CCOc1cc(C(=O)NCC(C)C)cc(-c2ccc3oc(-c4ccc(F)cc4)c(C(=O)NC)c3c2)c1,1000 to 10000,1000 to 10000
CNC(=O)c1c(-c2ccc(F)cc2)oc2ccc(-c3cc(OCC4CC4)cc(C(=O)NCC(C)C)c3)cc12,> 10000,250 to 1000
CNC(=O)c1c(-c2ccc(F)cc2)oc2ccc(-c3cc(OCc4cccnc4)cc(C(=O)NCC(C)C)c3)cc12,1000 to 10000,1000 to 10000
CNC(=O)c1c(-c2ccc(F)cc2)oc2ccc(-c3cc(OCc4ccoc4)cc(C(=O)NCC(C)C)c3)cc12,1000 to 10000,1000 to 10000
CNC(=O)c1c(-c2ccc(F)cc2)oc2ccc(-c3cc(OCCC4CCNCC4)cc(C(=O)NCC(C)C)c3)cc12,< 250,1000 to 10000

SMILES,IC50 [1] [nM],EC50 (HCV replicon cells) [nM]
CCCOc1cc(C(=O)NCC(C)C)cc(-c2ccc3oc(-c4ccc(F)cc4)c(C(=O)NC)c3c2)c1,> 10000,1000 to 10000
CCOc1cc(C(=O)NCC(C)C)cc(-c2ccc3oc(-c4ccc(F)cc4)c(C(=O)NC)c3c2)c1,> 500,1000 to 10000
CNC(=O)c1c(-c2ccc(F)cc2)oc2ccc(-c3cc(OCCOC)cc(C(=O)NCC(C)C)c3)cc12,> 500,1000 to 10000
CNC(=O)c1c(-c2ccc(F)cc2)oc2ccc(-c3cc(OCCn4ccnc4C)cc(C(=O)NCC(C)C)c3)cc12,1000 to 10000,1000 to 10000
CNC(=O)c1c(-c2ccc(F)cc2)oc2ccc(-c3cc(OC[C@@H]4CCCN4)cc(C(=O)NCC(C)C)c3)cc12,1000 to 10000,1000 to 10000
CNC(=O)c1c(-c2ccc(F)cc2)oc2ccc(-c3cc(OCc4cc(C)on4)cc(C(=O)NCC(C)C)c3)cc12,> 1390,1000 to 10000
CNC(=O)c1c(-c2ccc(F)cc2)oc2ccc(-c3cc(OCc4ccco4)cc(C(=O)NCC(C)C)c3)cc12,1000 to 10000,1000 to 10000
CNC(=O)c1c(-c2ccc(F)cc2)oc2ccc(-c3cc(OCC4CCC4)cc(C(=O)NCC(C)C)c3)cc12,> 10000,1000 to 10000
CNC(=O)c1c(-c2ccc(F)cc2)oc2ccc(-c3cc(OCc4nnc(C)o4)cc(C(=O)NCC(C)C)c3)cc12,< 250,1000 to 10000
CNC(=O)c1c(-c2ccc(F)cc2)oc2ccc(-c3cc(OCCn4cncn4)cc(C(=O)NCC(C)C)c3)cc12,250 to 1000,1000 to 10000
CNC(=O)c1c(-c2ccc(F)cc2)oc2ccc(-c3cc(OCC#N)cc(C(=O)NCC(C)C)c3)cc12,< 250,< 250
CNC(=O)c1c(-c2ccc(F)cc2)oc2ccc(-c3cccc(C(=O)NC4(c5ccccn5)CC4)c3F)cc12,< 250,< 250
CNC(=O)c1c(-c2ccc(F)cc2)oc2ccc(-c3cc(C(=O)NC4(c5ccccn5)CC4)ccc3C(F)(F)F)cc12,< 250,< 250
CNC(=O)c1c(-c2ccc(F)cc2)oc2ccc(-c3cc(C(=O)NC4(c5ccccc5)CC4)ccc3OCCN(C)C)cc12,< 250,< 250
CNC(=O)c1c(-c2ccc(F)cc2)oc2ccc(-c3cc(C(=O)NC4(c5ccccc5)CC4)ccc3OCCO)cc12,< 250,< 250
CNC(=O)c1c(-c2ccc(F)cc2)oc2ccc(-c3cc(C(=O)NC4(c5ccccc5)CC4)ccc3OCC(N)=O)cc12,< 250,< 250
CNC(=O)c1c(-c2ccc(F)cc2)oc2ccc(-c3cc(C(=O)NC4(c5ccccc5)CC4)ccc3OCCN)cc12,< 250,< 250
CNC(=O)c1c(-c2ccc(F)cc2)oc2ccc(-c3cc(C(=O)NC4(c5ccccn5)CC4)ccc3OC)cc12,< 250,< 250
CNC(=O)c1c(-c2ccc(F)cc2)oc2ccc(-c3cc(F)cc(C(=O)NC4(c5ccccn5)CC4)c3)cc12,< 250,< 250
CNC(=O)c1c(-c2ccc(F)cc2)oc2ccc(-c3cc(C(=O)NC4(c5ccccn5)CC4)c(OC)cc3OC)cc12,< 250,< 250
CNC(=O)c1c(-c2ccc(F)cc2)oc2ccc(-c3ccc(Cl)c(C(=O)NC4(c5ccccn5)CC4)c3)cc12,250 to 1000,> 10000
CNC(=O)c1c(-c2ccc(F)cc2)oc2ccc(-c3cc(C(=O)NC4(c5ccccn5)CC4)ccc3OCC(N)=O)cc12,< 250,< 250
CNC(=O)c1c(-c2ccc(F)cc2)oc2ccc(-c3cc(C(=O)NC4(c5ccccn5)CC4)ccc3OCCN(C)C)cc12,< 250,< 250
CNC(=O)c1c(-c2ccc(F)cc2)oc2ccc(-c3cc(C(=O)NC4(c5nnc(-c6cccnc6)[nH]5)CC4)ccc3C)cc12,< 250,< 250
CNC(=O)c1c(-c2ccc(F)cc2)oc2ccc(-c3cc(C(=O)NC4(c5nnc(-c6ccncc6)[nH]5)CC4)ccc3C)cc12,< 250,< 250

# Source: patent publication US8309558B2, “Compounds for the treatment of hepatitis C” (Bristol-Myers Squibb Company, priority 2008, dated 2012)
